# Where two headings read alike, the source gives them in different places.
# Columns and labels:
# [1] = test system: HIV1 strain NL4-3; type: cell-based; conditions: normalized mean of HIV1 replication readout
# [2] = test system: HCV replicon; type: cell-based; conditions: normalized mean of HCV replicon readout
# [3] = test system: F. novicida (strain U112); type: cell-based
# [4] = test system: influenza A H1N1 virus; conditions: 48 hr post-treatment, A549
# [5] = test system: EBV; conditions: normalized mean of EBV replication readout
substance,measurement,setting,value
MNNQRKKAKNTPFNM [CPEP62],HIV1 Norm MEAN,[1]; peptide screen,0.3968
same,HCV Norm MEAN,[2]; peptide screen,0.5393
same,Francisella novicida Norm AUC,[3],0.8631
same,Neuraminidase activity normalized to vehicle,[4]; 200 µM peptide,"1,2311"
same,Neuraminidase activity normalized to vehicle,"[4]; 0,823 µM peptide","1,1108"
same,Neuraminidase activity normalized to vehicle,"[4]; 22,2 µM peptide","0,891"
same,Neuraminidase activity normalized to vehicle,"[4]; 2,4691 µM peptide","1,0767"
same,Neuraminidase activity normalized to vehicle,"[4]; 7,4074 µM peptide","0,9136"
same,Neuraminidase activity normalized to vehicle,"[4]; 66,6667 µM peptide","1,1387"
same,EBV Norm MEAN,[5]; peptide screen,1.218
YRHHY [CPEP48],HIV1 Norm MEAN,[1],1.395
same,HCV Norm MEAN,[2],0.151
same,Francisella novicida Norm AUC,[3],0.6002
same,Neuraminidase activity normalized to vehicle,[4]; 200 µM peptide,"1,01"
same,Neuraminidase activity normalized to vehicle,"[4]; 0,823 µM peptide","0,9611"
same,Neuraminidase activity normalized to vehicle,"[4]; 22,2 µM peptide","1,0228"
same,Neuraminidase activity normalized to vehicle,"[4]; 2,4691 µM peptide","0,8941"
same,Neuraminidase activity normalized to vehicle,"[4]; 7,4074 µM peptide","0,9555"
same,Neuraminidase activity normalized to vehicle,"[4]; 66,6667 µM peptide","1,0901"
same,EBV Norm MEAN,[5],1.742
WKSKKTP [CPEP78],HIV1 Norm MEAN,[1],1.618
same,HCV Norm MEAN,[2],0.1248
same,Francisella novicida Norm AUC,[3],0.7597
same,Neuraminidase activity normalized to vehicle,[4]; 200 µM peptide,"0,663"
same,Neuraminidase activity normalized to vehicle,"[4]; 0,823 µM peptide","0,9859"
same,Neuraminidase activity normalized to vehicle,"[4]; 22,2 µM peptide","0,8841"
same,Neuraminidase activity normalized to vehicle,"[4]; 2,4691 µM peptide","0,8283"
same,Neuraminidase activity normalized to vehicle,"[4]; 7,4074 µM peptide","0,8644"
same,Neuraminidase activity normalized to vehicle,"[4]; 66,6667 µM peptide","0,9037"
same,EBV Norm MEAN,[5],1.01
EDLLNEPGQPLDLSC [CPEP104],HIV1 Norm MEAN,[1]; peptide screen,0.2933
same,HCV Norm MEAN,[2]; peptide screen,1.128
same,Francisella novicida Norm AUC,[3],1.073
same,Neuraminidase activity normalized to vehicle,[4]; 200 µM peptide,"0,8372"
same,Neuraminidase activity normalized to vehicle,"[4]; 0,823 µM peptide","0,8247"
same,Neuraminidase activity normalized to vehicle,"[4]; 22,2 µM peptide","0,8954"
same,Neuraminidase activity normalized to vehicle,"[4]; 2,4691 µM peptide","0,9133"
same,Neuraminidase activity normalized to vehicle,"[4]; 7,4074 µM peptide","0,8771"
same,Neuraminidase activity normalized to vehicle,"[4]; 66,6667 µM peptide","0,8952"
same,EBV Norm MEAN,[5]; peptide screen,0.504
CPEP89: peptide of the viral peptide library; sequence page not shown (YDVLKAACKSVIKT),HIV1 Norm MEAN,[1]; peptide screen,4.725
same,HCV Norm MEAN,[2]; peptide screen,1.184
same,Francisella novicida Norm AUC,[3],0.9882
same,Neuraminidase activity normalized to vehicle,[4]; 200 µM peptide,"0,097"
same,Neuraminidase activity normalized to vehicle,"[4]; 0,823 µM peptide","0,8515"
same,Neuraminidase activity normalized to vehicle,"[4]; 22,2 µM peptide","0,6685"
same,Neuraminidase activity normalized to vehicle,"[4]; 2,4691 µM peptide","0,8767"
same,Neuraminidase activity normalized to vehicle,"[4]; 7,4074 µM peptide","0,7891"
same,Neuraminidase activity normalized to vehicle,"[4]; 66,6667 µM peptide","0,2057"
same,EBV Norm MEAN,[5]; peptide screen,0.6285
LHCYE [CPEP152],HIV1 Norm MEAN,[1],1.7684
same,HCV Norm MEAN,[2],0.1555
same,Francisella novicida Norm AUC,[3],0.5262
same,Neuraminidase activity normalized to vehicle,[4]; 200 µM peptide,"1,0605"
same,Neuraminidase activity normalized to vehicle,"[4]; 0,823 µM peptide","0,8889"
same,Neuraminidase activity normalized to vehicle,"[4]; 22,2 µM peptide","0,9121"
same,Neuraminidase activity normalized to vehicle,"[4]; 2,4691 µM peptide","0,8832"
same,Neuraminidase activity normalized to vehicle,"[4]; 7,4074 µM peptide","0,8045"
same,Neuraminidase activity normalized to vehicle,"[4]; 66,6667 µM peptide","1,0197"
same,EBV Norm MEAN,[5],1.379
WGCSGKLICTTTVPW [CPEP84],HIV1 Norm MEAN,[1]; peptide screen,0.7328
same,HCV Norm MEAN,[2]; peptide screen,0.9118
same,Francisella novicida Norm AUC,[3],1.224
same,Neuraminidase activity normalized to vehicle,[4]; 200 µM peptide,"0,0819"
same,Neuraminidase activity normalized to vehicle,"[4]; 0,823 µM peptide","0,9093"
same,Neuraminidase activity normalized to vehicle,"[4]; 22,2 µM peptide","0,9299"
same,Neuraminidase activity normalized to vehicle,"[4]; 2,4691 µM peptide","0,9765"
same,Neuraminidase activity normalized to vehicle,"[4]; 7,4074 µM peptide","0,9455"
same,Neuraminidase activity normalized to vehicle,"[4]; 66,6667 µM peptide","0,3888"
same,EBV Norm MEAN,[5]; peptide screen,0.6808
LGQGVSIEW [CPEP122],HIV1 Norm MEAN,[1],0.4311
same,HCV Norm MEAN,[2],0.594
same,Francisella novicida Norm AUC,[3],1.0126
same,Neuraminidase activity normalized to vehicle,[4]; 200 µM peptide,"0,6921"
same,Neuraminidase activity normalized to vehicle,"[4]; 0,823 µM peptide","1,0256"
same,Neuraminidase activity normalized to vehicle,"[4]; 22,2 µM peptide","0,854"
same,Neuraminidase activity normalized to vehicle,"[4]; 2,4691 µM peptide","0,9073"
same,Neuraminidase activity normalized to vehicle,"[4]; 7,4074 µM peptide","0,9191"
same,Neuraminidase activity normalized to vehicle,"[4]; 66,6667 µM peptide","0,7889"
same,EBV Norm MEAN,[5],0.7196
IQIGNHNAM [CPEP67],HIV1 Norm MEAN,[1],4.672
same,HCV Norm MEAN,[2],0.7713
same,Francisella novicida Norm AUC,[3],0.7313
same,Neuraminidase activity normalized to vehicle,[4]; 200 µM peptide,"0,0404"
same,Neuraminidase activity normalized to vehicle,"[4]; 0,823 µM peptide","0,9632"
same,Neuraminidase activity normalized to vehicle,"[4]; 22,2 µM peptide","0,5849"
same,Neuraminidase activity normalized to vehicle,"[4]; 2,4691 µM peptide","0,8279"
same,Neuraminidase activity normalized to vehicle,"[4]; 7,4074 µM peptide","0,768"
same,Neuraminidase activity normalized to vehicle,"[4]; 66,6667 µM peptide","0,4017"
same,EBV Norm MEAN,[5],1.399
PPIPPPR [CPEP151],HIV1 Norm MEAN,[1],0.669
same,HCV Norm MEAN,[2],0.3254
same,Francisella novicida Norm AUC,[3],1.288
same,Neuraminidase activity normalized to vehicle,[4]; 200 µM peptide,"1,016"
same,Neuraminidase activity normalized to vehicle,"[4]; 0,823 µM peptide","0,9906"
same,Neuraminidase activity normalized to vehicle,"[4]; 22,2 µM peptide","0,9273"
same,Neuraminidase activity normalized to vehicle,"[4]; 2,4691 µM peptide","0,9123"
same,Neuraminidase activity normalized to vehicle,"[4]; 7,4074 µM peptide","0,9111"
same,Neuraminidase activity normalized to vehicle,"[4]; 66,6667 µM peptide","0,9435"
same,EBV Norm MEAN,[5],1.55
